The subject of experiment [1] is TGF-β induced PAI-1 production. The experiment in a line: TGF-β induced PAI-1 production in HT1080 cells (Western blotting). It is filed as cell-based. As to conditions: Homo sapiens, HT-1080, TGF-β1 10 ng/mL, 6-hours incubation. The protocol: After incubating HT1080 cells for 48 hours in the MEM medium containing 10% FBS (Fetal Bovine Serum), the medium was changed to a MEM medium containing 1% FBS, and TGF-β1 (final concentration: 10 ng/mL) only, or TGF-β1 (final concentration: 10 ng/mL) and the test substances were added and incubated. As a control, a culture solution without neither TGF-β1 nor the test substances was prepared. After 6-hours incubation, the culture fluids were collected, and the PAI-1 amounts in the culture fluids were measured by the Western blotting. The PAI-1 amount when TGF-β1 only was added being “100%,” and the PAI-1 amount in the control being “0%,” PAI-1 amounts at each concentration of the test substances (PAI-1 inhibition ratios) were calculated, and the concentrations of the compounds, which inhibited PAI-1 production to 50% (IC50) in amount, were obtained.
Background: Immunoblotting shows a protein as a band on a membrane.

Experiment [2] deals with TGF-β induced PAI-1 production. The experiment in a line: TGF-β induced PAI-1 production in HepG2 cells (Human Serpin E1/PAI-1 DuoSet). It is filed as cell-based.
Description: HepG2 cells were seeded on a 96-well culture plate by 2×10^4 cells/well, and were incubated for 24 hours in the MEM medium containing 1% NEAA (Non-Essential Amino Acids), 1 mM pyruvate, and 10% FBS. Then, the medium was changed to a MEM medium containing 1% NEAA, 1 mM pyruvate and 1% FBS, and the cells were further incubated for 24 hours. Subsequently, after the medium was changed to a MEM medium containing 1% NEAA, 1 mM pyruvate and 1% FBS, and then the cells were treated with the test substances (final concentration: 1 μM or 0.1 μM) for one hour, TGF-β1 (final concentration: 1 ng/mL) was added and the cells were further incubated for 24 hours. As controls, a culture solution added TGF-β1 only, and a culture solution cultured without neither the test substances nor TGF-β1 were prepared. After the incubation, the PAI-1 amount was measured using Human Serpin E1/PAI-1 DuoSet (R&D Systems). The PAI-1 amount when treated with TGF-β1 only being “100%”, and the PAI-1 amount when treated without neither the test substances nor TGF-β1 being “0%”, the PAI-1 inhibition ratios of each test substance were calculated.
Experiment [3] deals with PAI-1. The experiment in a line: Immunostaining of PAI-1 expression cells among cells infiltrated in the lung, cigarette smoke exposed guinea pigs. It is filed as in vivo, guinea pig. The protocol: Using the smoking exposure system (INH06-CIGOIA, MIPS Inc.), 6-week old guinea pigs (Std: male Hartley, Japan SLC, Inc.) were exposed to smoke of 40 cigarettes (Peace (Registered Trademark), Japan Tobacco, Inc.) a day (20 cigarettes twice) for 25 continuous days (Chronic Obstructive Pulmonary Disease (COPD) model group: Control group: n=10). To these guinea pigs, from the day of exposure to the smoke of tobacco, the compound (1) (30 mg/kg/day or 100 mg/kg/day) or prednisolone (10 mg/kg/day) was continuously administered orally once a day for 25 days (Compound (1) 30 mg administered group: n=5, Compound (1) 100 mg administered group: n=5, Prednisolone administered group: n=5). Furthermore, as a normal group, guinea pigs (n=5) exposed to air without the administration of the compound (1) and prednisolone were prepared. On the following day of the last exposure, after preparing paraffin sections in the lungs of each guinea pig, collagen was stained by the Masson-trichrome method, and the accumulations of collagen in the alveoli were measured by the area rate with the image analysis.
Next, the above paraffin section was stained by the immunostaining method using an anti PAI-1 antibody (PAI-1H-135; Santa Cruz; 250-fold dilution), and the ratio of PAI-1 expression cells to the total cell numbers infiltrated in the lung was measured. […]

Experiment [4] has as its system cardiac infarction (ischemia-reperfusion) model rats. The experiment in a line: Fibrosis ratio in left ventricle cardiac muscle, cardiac infarction (ischemia-reperfusion) model rats, Azan-Mallory stain. It is filed as in vivo, rat. Conditions: p.o., once a day for 28 days, control 7.5 ± 1.1. The protocol: After the 8-week old rats (SPF: male SD, Japan SLC, Inc.) were anesthetized with Pentobarbital Sodium, their hearts were exteriorized, and the left anterior descending coronary arteries (LAD) were ligated by a suture needle with a thread. 30 minutes later, the ligations were removed, and the blood was reperfused for 24 hours. After that, the compound (1) (10 mg/kg/day, 30 mg/kg/day, 100 mg/kg/day) was orally administered once a day for 28 continuous days. Moreover, as a control, rats to which the compound (1) was not administered after the reperfusion (cardiac infarction (ischemia-reperfusion) model rats) were prepared. On the 29th day after the reperfusion, after preparing paraffin sections of cardiac muscle in the left ventricle of each rat, Azan-Mallory stain was carried out, the ratios of the stained area occupying the myocardial necrosis distant sites were obtained as the ratios of fibrosis by the image analyses.

Experiment [5] has as its system PAI-1. The experiment in a line: PAI-1 concentration in plasma of type II diabetes patients with obesity (Human PAI-1 ELISA Kit). It is filed as in vivo. As to conditions: 200 mg orally twice a day for 12 weeks, plasma at 2, 4, 8, 12 weeks, FIG. 1. On the procedure:
To 10 patients of the type II diabetes with obesity where PAI-1 overproduction was recognized, the compound (1) was administered orally 200 mg each time twice a day (after breakfast and after dinner) for 12 weeks. Blood was collected from each patient just before the administration of the compound (1) and 2, 4, 8, and 12 weeks later, and the PAI-1 concentration in plasma was measured using Human PAI-1 ELISA Kit (AssayPro).
(In general: In an ELISA, binding on a coated surface is turned into a signal by an enzyme label.)

The subject of experiment [6] is mustard oil infusion rats (cystitis rat). The experiment in a line: Bladder fibrosis score, mustard oil infusion rats (cystitis rat), Azan stain. As to conditions: 100 mg/kg/day orally for 10 days; control 2.6±0.1; p<0.01 Wilcoxon test. It is filed as in vivo. The protocol: A polyethylene tube was inserted to the urethra of the 7 week-old rats (SPF: male Crj, Charles River Japan, Inc), and 0.4 mL of 5% mustard oil (diluted with liquid paraffin including 20% allyl isothiocyanate) was infused into the bladder. 60 minutes later, after withdrawing the liquid in the bladder with suctioning, the inside of the bladder was rinsed with saline. For 10 days including 3 days before the infusion of the mustard oil and 7 days after the infusion of the mustard oil, the compound (1) (100 mg/kg/day) was orally administered once a day (Compound (1) administered rat: n=6). Furthermore, as a control, mustard oil infusion rats (cystitis rat: n=6) to which the compound (1) was not administered were prepared. On the 8th day after the infusion of the mustard, the bladders were removed to prepare paraffin sections, the degrees of fibrosis were scored by Azan stain, and the evaluations were conducted. For the index of the scoring, those that have no abnormalities to the normal tissues being “1,” those that have minor fibrosis being “2,” those that have mild fibrosis being “3,” those that have moderate fibrosis being “4,” and those that have severe fibrosis being “5” were used. As a result, although the score of the control group was 2.6±0.1, the compound (1) administered group was 2.0±0.2, and a significant difference was confirmed (p<0.01: Wilcoxon test).

Experiment [7] deals with PAI-1 gene expression induced by PMA. Conditions: J. Immunol., Vol. 165, pp. 3154-3161, 2000; cited from earlier work.

Entries after “also recorded” stand apart in the source; their conditions may differ. A value given as a limit tells only on which side of the number the result lay.

The term IC50 denotes the point on the concentration scale where inhibition reaches its midpoint. For `O=C(Nc1cc(C(F)(F)F)cc(C(F)(F)F)c1)c1cc(Cl)ccc1O` [(2)], the IC50 in experiment [1] is 5 nM; in experiment [2] (Homo sapiens, TGF-β1 1 ng/mL, 24 hours), approximately 50 nM. Besides, the “Inhibition Ratio (PAI-1)” value in experiment [2] (Compound Concentration: 0.1 μM) is 94.8%; in experiment [2] (Compound Concentration: 1 μM) it was more than 90%. Compound `O=C(Nc1cc(C(F)(F)F)ccc1C(F)(F)F)c1cc(Br)ccc1O` [(3)] came in with an IC50 in experiment [1] of 83 nM. Besides, the “Inhibition Ratio (PAI-1)” value in experiment [2] (Compound Concentration: 1 μM) is recorded as more than 90%.

As to `O=C(Nc1cccc(SC(F)(F)F)c1)c1cc(Cl)ccc1O` [(82)], the “Inhibition Ratio (PAI-1)” value in experiment [2] (Compound Concentration: 1 μM) is recorded as more than 90%. `O=C(Nc1ccc(SC(F)(F)F)cc1)c1cc(Cl)ccc1O` [(83)]: the “Inhibition Ratio (PAI-1)” value in experiment [2] (Compound Concentration: 1 μM) is more than 90%. On the same count and under the same terms, next, `O=C(Nc1ccc(S(=O)(=O)C(F)(F)F)cc1)c1cc(Cl)ccc1O` [(84)]: more than 90%. Consider `O=C(Nc1ccc(F)c(F)c1)c1cc(Cl)ccc1O` [(85)], for which the “Inhibition Ratio (PAI-1)” value in experiment [2] (Compound Concentration: 1 μM) is recorded as 84.0%. On to `CCC(C)c1ccc(NC(=O)c2cc(Cl)ccc2O)cc1` (stereo not shown) [(87)], for which the “Inhibition Ratio (PAI-1)” value in experiment [2] (Compound Concentration: 1 μM) worked out at 89.6%. As to `O=C(Nc1ccc(OC(F)F)cc1)c1cc(Cl)ccc1O` [(90)], in experiment [2] (Compound Concentration: 1 μM), the “Inhibition Ratio (PAI-1)” value is more than 90%. The same measure, in the same setting: next, `CC(C)(C)c1cccc(NC(=O)c2cc(Cl)ccc2O)c1` [(92)]: more than 90%. With `O=C(Nc1cccc(S(=O)(=O)C(F)(F)F)c1)c1cc(Cl)ccc1O` [(94)], the “Inhibition Ratio (PAI-1)” value in experiment [2] (Compound Concentration: 1 μM) is reported as more than 90%. Same read-out and setting: next, `CCCCCCOc1cccc(NC(=O)c2cc(Cl)ccc2O)c1` [(95)]: 60.1%; `O=C(Nc1ccc(-c2ccccc2)cc1)c1cc(Cl)ccc1O` [(96)]: 71.0%; `O=C(Nc1cc(C(F)(F)F)cc(C(F)(F)F)c1)c1cccc(-c2ccccc2)c1O` [(97)]: 79.5%. In the case of `CC(C)c1cccc(C(=O)Nc2cc(C(F)(F)F)cc(C(F)(F)F)c2)c1O` [(98)], the “Inhibition Ratio (PAI-1)” value in experiment [2] (Compound Concentration: 1 μM) came out at 42.2%. On to `CC(C)c1cc(Br)cc(C(=O)Nc2cc(C(F)(F)F)cc(C(F)(F)F)c2)c1O` [(99)], for which the “Inhibition Ratio (PAI-1)” value in experiment [2] (Compound Concentration: 0.1 μM) is reported as 59.1%; in experiment [2] (Compound Concentration: 1 μM), 89.4%. Take `Cc1cc(Br)cc(C(=O)Nc2cc(C(F)(F)F)cc(C(F)(F)F)c2)c1O` [(100)]: the “Inhibition Ratio (PAI-1)” value in experiment [2] (Compound Concentration: 1 μM) was more than 90%. On the same count and under the same terms, the result for `O=C(Nc1cc(C(F)(F)F)cc(C(F)(F)F)c1)c1cc(Br)cc(-c2ccccc2)c1O` [(103)] reads more than 90%; that for `O=C(Nc1cc(C(F)(F)F)cc(C(F)(F)F)c1)c1ccc(-c2ccccc2)cc1O` [(106)], more than 90%. Regarding `O=C(Nc1cc(C(F)(F)F)cc(C(F)(F)F)c1)c1cc(Cl)ccc1OC(=O)N1CCOCC1` [Compound (1)], the “total number of the infiltrating cells versus normal group” value in the experiment on PAI-1 [3] (compound (1) 100 mg administered group) was “at the same level”. Besides, the “ratio of PAI-1 expression cells to the total number of infiltrating cells in the lung” value in the experiment on PAI-1 [3] (oral once a day for 25 days, FIG. 3) is recorded as “decreased; also recorded: improved to the level of the normal group”. The Fibrosis ratio in experiment [4] (10 mg/kg) amounted to 5.5 ± 0.4%; in experiment [4] (30 mg/kg), 4.9 ± 0.4%; in experiment [4] (100 mg/kg), 4.3 ± 0.5%. For the same compound, the “concentration of PAI-1 in blood” value with PAI-1 [5] was “decreased”. In addition, the “fibrosis score (1 no abnormalities to 5 severe fibrosis)” value in experiment [6] is reported as 2.0±0.2.

`C[C@@H]1C[C@@H]([C@H](O)CC2CC(=O)NC(=O)C2)C(=O)[C@@H](C)C1` [cycloheximide]: in experiment [7], the “PAI-1 gene expression induced by PMA” value is given as “inhibiting substance”.

Source of the values: patent US20090239868A1 (priority 2007, published 2009).
